Assay results as given in PMC10874388, “Cyclic peptides discriminate BCL-2 and its clinical mutants from BCL-XL by engaging a single-residue discrepancy” (Nature Communications, 2024).
Where “and” joins values, the source holds several entries; their conditions need not be identical. Identical values can stand only once. Starred links: 1 amine or outer side, 2 acyl side, 3 side chain; linkers in the order of their positions; H or OH if unused. Positions of bridges follow the written chain, without caps; N, C: chain ends. Residues, ends and D or L forms follow the SMILES beside them. No end group written: not given here. X1 = O=C(C[*:2])NCCNC(=O)c1ccc(C2=N[C@H](C(=O)[*:1])CS2)cc1; cADT = 2-aryl-4,5-dihydrothiazole (ADT) linker

T1: chimeric human BCL-2 (residues 1-50 and 92-207, residues 35-50 replaced with residues 33-48 of BCL-XL) (human, UniProt P10415 1-34; Q07817-1 33-48; P10415 92-207, biotin (biotinylated for SPR; site not stated))
T1 construct: BCL-2, human, residues 1-34 of the chimera (internal loop 51-91 removed; residues 35-50 replaced with residues 33-48 of BCL-XL); BCL-XL, human, residues 33-48, in place of BCL-2 residues 35-50; BCL-2, human, residues 92-207; Biotinylated for SPR; used as such for crystals and fluorescence polarisation; also called BCL-2 WT; source: E. coli BL21 (DE3), purified (Ni-NTA, Superdex 75, RESOURCE Q, …)
T1 chain (looked up): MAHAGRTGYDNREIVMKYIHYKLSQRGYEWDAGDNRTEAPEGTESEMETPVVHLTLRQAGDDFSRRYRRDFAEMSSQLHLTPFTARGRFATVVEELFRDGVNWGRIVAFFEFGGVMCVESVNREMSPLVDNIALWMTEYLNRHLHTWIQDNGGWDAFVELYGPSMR

B1: cp4 (peptide)
peptide: CPIRYGWDEFC
modifications: linker 1-11 via cADT (inferred)
notes: cp4 is cp2 with E6 substituted by G6; source: synthetic peptide
B2: cp5 (peptide)
peptide: CPIRYPWDEFC
modifications: linker 1-11 via cADT (inferred)
notes: cp5 is cp2 with E6 substituted by P6; source: synthetic peptide

Key:
Jurkat cells [1] = assay: Apoptosis assay, Annexin V-FITC/PI staining and flow cytometry; format: cell-based; conditions: for cell apoptosis(%): Figure 6b, replicate values; for Proportion of apoptotic cells: Jurkat, 24 h
Experimental: Jurkat cells were seeded to 6-well plates at a density of 4 ×10^5 cells per well. Cells were incubated in the presence of DMSO, venetoclax at 2.5 μM, cp1-TAT at 30 μM, cp2-TAT at 30 μM, or cp3-TAT at 20 μM in serum-free RPMI medium for 4 h. After being incubated totally for 24 h, cells were washed once with PBS and stained with 100 μL binding buffer containing 5 μL Annexin V-FITC and 10 μL PI for 15 min, followed by addition of 400 μL binding buffer to detect cell apoptosis with FCM (BD FACSAria Fusion). Statistical analysis was performed using software FlowJo V10 and GraphPad Prism 7.0.

RS4:11 cells = assay: Cell viability assay (CellTiter-Glo), RS4:11; format: cell-based; conditions: RS4:11, single wells
Experimental: (§1) The cell lines Jurkat (TIB-152), El4 (TIB-39), Daudi (ccl-213), RS4:11 (crl-1873), A549 (ccl-185), HepG2 (hb-8065) and PANC-1 (crl-1469) were purchased from ATCC (American Type Culture Collection), and MGC-803 (C6582) was purchased from Beyotime (https://www.beyotime.com/product/C6582.htm). […] Daudi and RS4:11 cells were cultured in RPMI-1640 medium (HyClone, SH30809.01) and 10% FBS (Gibco, 10099-141), whereas HepG2, MGC-803 and PANC-1 cells were cultured in MDEM (HyClone, SH30243.01). Cells were maintained at 37 °C under a humidified, 5% (v/v) CO2-containing atmosphere.
(§2) Cell viability was measured using CellTiter-Glo® 2.0 Reagent (Promega, G9242). […] After different inhibitors were added into serum-free medium and cultured for 4 h (RS4:11 for 6 h), FBS were supplemented to 10% and then incubated totally for 24 h or 48 h. Finally, the IC50 values were calculated based on measurements using a microplate reader (Thermo, Varioskan LUX). Statistical analysis was performed using software GraphPad Prism 7.0.

Daudi cells = assay: Cell viability assay (CellTiter-Glo), Daudi; format: cell-based; conditions: 48 h treatment, CellTiter-Glo
Experimental: as §1, §2

Jurkat cells [2] = assay: Mitochondrial membrane potential (JC-1), flow cytometry and fluorescence microscopy; format: cell-based; conditions: for Q1(%) / Q1(%)/Q3(%) / Q3(%): Figure 6d, 4h, replicate values; for ΔΨm (ratio of red over green fluorescence, Q1/Q3) / Relative ΔΨm by JC-1 fluorescence staining (microscopy): Jurkat; for ΔΨm (ratio of red over green fluorescence, Q1/Q3): 4 h treatment, JC-1, flow cytometry, n = 3; for Relative ΔΨm by JC-1 fluorescence staining (microscopy): 24 h treatment (Supplementary Fig. 13)
Experimental: For the mitochondrial membrane potential (ΔΨm) analysis, the mitochondrial membrane potential assay kit with JC-1 dye (Beyotime, C2006) was used according to the manufacturer’s protocol. […] The value of ΔΨm was expressed as the ratio of red fluorescence intensity over green fluorescence intensity. After treated with JC-1, fluorescence intensity of Jurkat cells was tested by flow cytometry (BD FACSAria Fusion) and fluorescence microscopy (NIKON Ti-E), respectively. All experiments were performed in triplicate. Statistical analysis was performed using software GraphPad Prism 7.0.

[3] = target: T1, chimeric human BCL-2 (residues 1-50 and …); assay: SPR; Biacore T200; biotinylated proteins immobilised on a CAP sensor chip; peptides flowed in multiple cycles (25-12800 nM, depending on the peptides) at 30 uL/min; 10 mM PBS, 50 uM EDTA, 0.05% Tween-20, 25 °C; affinity fitting, 1:1 binding model; conditions: both partners purified
[4] = target: T2, human BCL-XL (residues 1-210, with 27-81 and 210-233 removed) (human, UniProt Q07817-1 1-209, 27-81 removed, biotin (biotinylated for SPR; site not stated)); assay: as above; conditions: both partners purified
T2 construct: BCL-XL, human; printed as residues 1-210, with 27-81 and 210-233 removed (so the last residue is 209 or 210); source: E. coli BL21 (DE3), purified (Ni-NTA, Superdex 75, RESOURCE Q, Superdex 200)
T2 sequence (Q07817 other isoform, or with tags, fused parts or gaps 27-81 removed | 27-81 removed): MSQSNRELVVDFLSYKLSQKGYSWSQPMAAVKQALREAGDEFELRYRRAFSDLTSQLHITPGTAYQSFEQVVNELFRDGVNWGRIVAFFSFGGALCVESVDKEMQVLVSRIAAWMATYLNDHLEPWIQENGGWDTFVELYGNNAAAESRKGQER

| Kd [3] | Kd [4] | Molecule | cell apoptosis(%) (Jurkat cells [1]) | raw luminescence reading (RS4:11 cells; 0.0488281 uM) | raw luminescence reading (RS4:11 cells; 0.0976562 uM) | raw luminescence reading (RS4:11 cells; 0.195312 uM) | raw luminescence reading (RS4:11 cells; 0.390625 uM) | raw luminescence reading (RS4:11 cells; 0.78125 uM) | raw luminescence reading (RS4:11 cells; 1.5625 uM) | raw luminescence reading (RS4:11 cells; 3.125 uM) | raw luminescence reading (RS4:11 cells; 6.25 uM) | raw luminescence reading (RS4:11 cells; 12.5 uM) | inhibition rate (RS4:11 cells; 12.5 uM, 12.5 µM) | raw luminescence reading (RS4:11 cells; 25 uM) | inhibition rate (RS4:11 cells; 25 uM, 25 µM) | Q1(%) (Jurkat cells [2]) | Q1(%)/Q3(%) (Jurkat cells [2]) | Q3(%) (Jurkat cells [2]) | ΔΨm (ratio of red over green fluorescence, Q1/Q3) (Jurkat cells [2]) | Relative ΔΨm by JC-1 fluorescence staining (microscopy) (Jurkat cells [2]) | other results |
| --- | --- | --- | --- | --- | --- | --- | --- | --- | --- | --- | --- | --- | --- | --- | --- | --- | --- | --- | --- | --- | --- |
| – | – | CC[C@H](C)[C@@H]1NC(=O)[C@@H]2CCCN2C(=O)[C@@H]2CSC(=N2)c2ccc(cc2)C(=O)NCCNC(=O)CSC[C@@H](C(=O)NCC(=O)N[C@@H](CO)C(=O)NCC(=O)N[C@@H](CO)C(=O)N[C@@H](CCCNC(=N)N)C(=O)N[C@@H](CCCCN)C(=O)N[C@@H](CCCCN)C(=O)N[C@@H](CCCNC(=N)N)C(=O)N[C@@H](CCCNC(=N)N)C(=O)N[C@@H](CCC(N)=O)C(=O)N[C@@H](CCCNC(=N)N)C(=O)N[C@@H](CCCNC(=N)N)C(=O)N[C@@H](CCCNC(=N)N)C(N)=O)NC(=O)[C@H](CCC(=O)O)NC(=O)[C@H](C(C)C)NC(=O)[C@H](CC(=O)O)NC(=O)[C@H](Cc2c[nH]c3ccccc23)NC(=O)[C@@H]2CCCN2C(=O)[C@H](Cc2ccc(O)cc2)NC(=O)[C@H](CCCNC(=N)N)NC1=O [cp3-TAT] (PIRYPWDVECGSGSRKKRRQRRR-NH2; linker N-10 via X1; C-terminus assumed) | 99.03% and 93.5% | 433900 and 423300 and 457600 and 413600 and 399000 and 376500 | 420200 and 404600 and 437700 and 401400 and 384500 and 361600 | 419000 and 421800 and 444400 and 422500 and 407600 and 396300 | 424000 and 396600 and 443200 and 395300 and 386700 and 379800 | 411200 and 409100 and 439500 and 400400 and 395700 and 387400 | 353400 and 425900 and 446500 and 460500 and 369200 and 455200 | 352000 and 428300 and 434800 and 455400 and 358000 and 465500 | 339600 and 384800 and 395500 and 428900 and 341900 and 416000 | 266500 and 298700 and 305700 and 333300 and 270500 and 326800 | 37% and 29% and 28% and 21% and 36% and 23% | 85450 and 98110 and 94850 and 106300 and 88910 and 106600 | 80% and 77% and 78% and 75% and 79% | 56.7% and 57.7% and 59.6% | 1.435 and 1.514 and 1.628 | 39.5% and 38.1% and 36.6% | 1.53 | red fluorescence almost disappeared | Proportion of apoptotic cells (Jurkat cells [1]; 20 μM): 99.03%; inhibition rate (RS4:11 cells; 50 uM): 100%; inhibition rate (RS4:11 cells; 100 uM): 100%; IC50 (Daudi cells): 7940 nM |
| – | – | C[C@@H]1NC(=O)[C@@H]2CCCN2C(=O)[C@@H]2CSC(=N2)c2ccc(cc2)C(=O)NCCNC(=O)CSC[C@@H](C(=O)NCC(=O)N[C@@H](CO)C(=O)NCC(=O)N[C@@H](CO)C(=O)N[C@@H](CCCNC(=N)N)C(=O)N[C@@H](CCCCN)C(=O)N[C@@H](CCCCN)C(=O)N[C@@H](CCCNC(=N)N)C(=O)N[C@@H](CCCNC(=N)N)C(=O)N[C@@H](CCC(N)=O)C(=O)N[C@@H](CCCNC(=N)N)C(=O)N[C@@H](CCCNC(=N)N)C(=O)N[C@@H](CCCNC(=N)N)C(N)=O)NC(=O)[C@H](CCC(=O)O)NC(=O)[C@H](Cc2ccc(O)cc2)NC(=O)[C@H](CC(=O)O)NC(=O)[C@H](Cc2c[nH]c3ccccc23)NC(=O)CNC(=O)[C@H](Cc2ccc(O)cc2)NC(=O)[C@H](CCCNC(=N)N)NC1=O [cp1-TAT] (PARYGWDYECGSGSRKKRRQRRR-NH2; linker N-10 via X1; C-terminus assumed) | 66.77% and 60.2% | 483100 and 539500 and 548500 and 508300 and 527200 and 488600 | 528800 and 591800 and 582200 and 559700 and 554700 and 529500 | 524900 and 538800 and 551800 and 528900 and 518500 and 499500 | 511700 and 533900 and 533200 and 520400 and 504300 and 479000 | 535400 and 544100 and 562800 and 550400 and 519400 and 494800 | 520400 and 578500 and 612400 and 550500 and 491200 and 506800 | 414000 and 466800 and 497600 and 501300 and 428800 and 513500 | 401900 and 468400 and 486300 and 500900 and 419400 and 497100 | 380500 and 444100 and 470000 and 488300 and 390700 and 473300 | 11% | 309300 and 375600 and 407800 and 416800 and 350200 and 401000 | 42% and 29% and 23% and 21% and 34% and 24% | 67.4% and 59.1% and 60.9% | 5.861 and 3.177 and 3.421 | 11.5% and 18.6% and 17.8% | 4.15 | slightly decreased | Proportion of apoptotic cells (Jurkat cells [1]; 30 μM): 66.77%; inhibition rate (RS4:11 cells; 0.195312 uM, 0.195312 µM): 0.825% and -1.8% and -4.26% and 0.0693% and 2% and 5.62%; raw luminescence reading (RS4:11 cells; 50 uM): 222600 and 265500 and 282300 and 297300 and 246800 and 283000; inhibition rate (RS4:11 cells; 50 uM, 50 µM): 58% and 50% and 47% and 44% and 53%; raw luminescence reading (RS4:11 cells; 100 uM): 63070 and 74540 and 82840 and 89800 and 66010 and 86930; inhibition rate (RS4:11 cells; 100 uM, 100 µM): 88% and 86% and 84% and 83% |
| 80 nM | 470 nM | B1 | – | – | – | – | – | – | – | – | – | – | – | – | – | – | – | – | – | – | – |
| 80 nM | 40 nM | B2 | – | – | – | – | – | – | – | – | – | – | – | – | – | – | – | – | – | – | – |
